Measurements taken from patent US10081647B2, “Phosphate substituted quinolizine derivatives useful as HIV integrase inhibitors” (Merck Sharp & Dohme Corp., priority 2015, dated 2018).
Read-outs that look alike come from different tables or passages of the source.

System: HIV-1 (NL4-3 strain)
Assay: Assay for inhibition of HIV replication (MT4-gag-GFP reporter cell line, kinetic assay)
Format: cell-based
Settings: IP from 4-parameter dose response curve
Description: This assay is useful for assessing the ability of a compound of the present inventiongin to inhibit HIV replication. The assay is a kinetic assay that employs a reporter cell line (MT4-gag-GFP) to quantify the number of new cells infected in each round of replication.
MT4-GFP cells (250,000 cells/ml) are bulk-infected with HIV-1 (NL4-3 strain) at low multiplicity of infection (MOI) in RPMI+10% FBS for 24 hours. Cells are then washed once in RPMI+10% FBS and resuspended in RPMI+0% or 10% or 100% normal human serum (NHS). Test compounds are serial-diluted in DMSO using an ECHO liquid handler. The infected MT4-GFP cells are added to a 384-well poly-D-lysine coated black plate with clear bottom in which the diluted test compounds are placed. The cells are seeded at 8,000 cells per well and the final DMSO concentration is adjusted to 0.4%. The infected cells (Green GFP cells) are then quantified at both 24 and 48 hours post incubation using Acumen eX3. Viral reproductive ratio (R0) is determined using the number of infected cells at 48 hours divided by the number of infected cells at 24 hours. Percent viral growth inhibition is calculated by [1−(R−Rtripledrug)/(RDMSO−Rtripledrug)]*100. Compound potency IP or IC50 can be determined using a 4-parameter dose response curve analysis.

[1] = infected MT4-GFP cells in 100% normal human serum, read-out: WILD TYPE CELL ASSAY Viking IP (100% NHS)
[2] = infected MT4-GFP cells in RPMI + 0% normal human serum, read-out: WILD TYPE CELL ASSAY Viking IP (0% NHS)
[3] = Human immunodeficiency virus 1, NL43, infected MT4-GFP cells in RPMI + 0% normal human serum, read-out: WILD TYPE CELL ASSAY Viking IP (0% NHS)

COCCC1(C)C(=O)c2c(O)c(=O)c(C(=O)NCc3ccc(F)cc3F)cn2CC1OCCP(=O)(O)O (centres unmarked) [Compound 84]
IC50 [1]: 2930 nM
IC50 [2]: 492 nM

COCCC1(C)C(=O)c2c(O)c(=O)c(C(=O)NCc3ccc(F)cc3F)cn2CC1OCCP(=O)(OCOC(=O)OC(C)C)OCOC(=O)OC(C)C (centres unmarked) [Compound 85]
IC50 [1]: 7.7 nM
IC50 [2]: 0.291 nM

COCCC1(C)C(=O)c2c(O)c(=O)c(C(=O)NCc3ccc(F)cc3F)cn2CC1OCCP(=O)(OCOC(=O)OC(C)C)OCOC(=O)OC(C)C (centres unmarked) [Compound 86]
IC50 [1]: 980 nM
IC50 [2]: 3.5 nM

COCCC1(C)C(=O)c2c(O)c(=O)c(C(=O)NCc3ccc(F)cc3F)cn2CC1OCCP(=O)(OCOC(=O)OC(C)C)OCOC(=O)OC(C)C (centres unmarked) [Compound 87]
IC50 [1]: 21 nM
IC50 [2]: 0.8 nM

COCCC1(C)C(=O)c2c(O)c(=O)c(C(=O)NCc3ccc(F)cc3F)cn2CC1OCCP(=O)(OCOC(=O)OC(C)C)OCOC(=O)OC(C)C (centres unmarked) [Compound 88]
IC50 [1]: 29 nM
IC50 [2]: 0.9 nM

CCOP(=O)(CCCOC1Cn2cc(C(=O)NCc3ccc(F)cc3F)c(=O)c(O)c2C(=O)C1(C)CCOC)OCC (centres unmarked) [Compound 89]
IC50 [1]: 211 nM
IC50 [2]: 15 nM

CCOP(=O)(CCCOC1Cn2cc(C(=O)NCc3ccc(F)cc3F)c(=O)c(O)c2C(=O)C1(C)CCOC)OCC (centres unmarked) [Compound 90]
IC50 [1]: 123 nM
IC50 [2]: 15 nM

CCOP(=O)(CCCOC1Cn2cc(C(=O)NCc3ccc(F)cc3F)c(=O)c(O)c2C(=O)C1(C)CCOC)OCC (centres unmarked) [Compound 91]
IC50 [1]: 600 nM
IC50 [2]: 31 nM

CCOP(=O)(CCCOC1Cn2cc(C(=O)NCc3ccc(F)cc3F)c(=O)c(O)c2C(=O)C1(C)CCOC)OCC (centres unmarked) [Compound 92]
IC50 [1]: 2320 nM
IC50 [2]: 143 nM

CCOP(=O)(CCNC1Cn2cc(C(=O)NCc3ccc(F)cc3F)c(=O)c(O)c2C(=O)C1(C)C)OCC (centres unmarked) [Compound 101]
IC50 [3]: 50 nM
IC50 [1]: 891 nM

CCOP(=O)(CCNC1Cn2cc(C(=O)NCc3ccc(F)cc3F)c(=O)c(O)c2C(=O)C1(C)C)OCC (centres unmarked) [Compound 102]
IC50 [1]: 150 nM
IC50 [2]: 25 nM

CCOP(=O)(CCCNC1Cn2cc(C(=O)NCc3ccc(F)cc3F)c(=O)c(O)c2C(=O)C1(C)C)OCC (centres unmarked) [Compound 105]
IC50 [1]: 628 nM
IC50 [2]: 15 nM

CCOP(=O)(CCCNC1Cn2cc(C(=O)NCc3ccc(F)cc3F)c(=O)c(O)c2C(=O)C1(C)C)OCC (centres unmarked) [Compound 106]
IC50 [1]: 95 nM
IC50 [2]: 3.6 nM

CC1(C)C(=O)c2c(O)c(=O)c(C(=O)NCc3ccc(F)cc3F)cn2CC1NCCCP(=O)(O)O (centres unmarked) [Compound 108]
IC50 (Human immunodeficiency virus 1, NL43, infected MT4-GFP cells in 100% normal human serum, read-out: WILD TYPE CELL ASSAY Viking IP (100% NHS)): 1260 nM
IC50 [3]: 95 nM

CC(C)OC(=O)OCOP(=O)(CCCNC1Cn2cc(C(=O)NCc3ccc(F)cc3F)c(=O)c(O)c2C(=O)C1(C)C)OCOC(=O)OC(C)C (centres unmarked) [Compound 109]
IC50 [1]: 3520 nM
IC50 [2]: 38 nM

CC(C)OC(=O)OCOP(=O)(CCCNC1Cn2cc(C(=O)NCc3ccc(F)cc3F)c(=O)c(O)c2C(=O)C1(C)C)OCOC(=O)OC(C)C (centres unmarked) [Compound 110]
IC50 [1]: 154 nM
IC50 [2]: 8.8 nM
